Results on 24 compounds are retold here after patent publication US10894788B2, “Inhibitors of cyclin-dependent kinases” (Kinnate Biopharma Inc., priority 2018, dated 2021).

Broadly, the IC50 is the concentration needed to halve the response being measured.

A value given as a limit tells only on which side of the number the result lay.

CDK12 wt/CycK, sequence (Q9NYV4 whole entry): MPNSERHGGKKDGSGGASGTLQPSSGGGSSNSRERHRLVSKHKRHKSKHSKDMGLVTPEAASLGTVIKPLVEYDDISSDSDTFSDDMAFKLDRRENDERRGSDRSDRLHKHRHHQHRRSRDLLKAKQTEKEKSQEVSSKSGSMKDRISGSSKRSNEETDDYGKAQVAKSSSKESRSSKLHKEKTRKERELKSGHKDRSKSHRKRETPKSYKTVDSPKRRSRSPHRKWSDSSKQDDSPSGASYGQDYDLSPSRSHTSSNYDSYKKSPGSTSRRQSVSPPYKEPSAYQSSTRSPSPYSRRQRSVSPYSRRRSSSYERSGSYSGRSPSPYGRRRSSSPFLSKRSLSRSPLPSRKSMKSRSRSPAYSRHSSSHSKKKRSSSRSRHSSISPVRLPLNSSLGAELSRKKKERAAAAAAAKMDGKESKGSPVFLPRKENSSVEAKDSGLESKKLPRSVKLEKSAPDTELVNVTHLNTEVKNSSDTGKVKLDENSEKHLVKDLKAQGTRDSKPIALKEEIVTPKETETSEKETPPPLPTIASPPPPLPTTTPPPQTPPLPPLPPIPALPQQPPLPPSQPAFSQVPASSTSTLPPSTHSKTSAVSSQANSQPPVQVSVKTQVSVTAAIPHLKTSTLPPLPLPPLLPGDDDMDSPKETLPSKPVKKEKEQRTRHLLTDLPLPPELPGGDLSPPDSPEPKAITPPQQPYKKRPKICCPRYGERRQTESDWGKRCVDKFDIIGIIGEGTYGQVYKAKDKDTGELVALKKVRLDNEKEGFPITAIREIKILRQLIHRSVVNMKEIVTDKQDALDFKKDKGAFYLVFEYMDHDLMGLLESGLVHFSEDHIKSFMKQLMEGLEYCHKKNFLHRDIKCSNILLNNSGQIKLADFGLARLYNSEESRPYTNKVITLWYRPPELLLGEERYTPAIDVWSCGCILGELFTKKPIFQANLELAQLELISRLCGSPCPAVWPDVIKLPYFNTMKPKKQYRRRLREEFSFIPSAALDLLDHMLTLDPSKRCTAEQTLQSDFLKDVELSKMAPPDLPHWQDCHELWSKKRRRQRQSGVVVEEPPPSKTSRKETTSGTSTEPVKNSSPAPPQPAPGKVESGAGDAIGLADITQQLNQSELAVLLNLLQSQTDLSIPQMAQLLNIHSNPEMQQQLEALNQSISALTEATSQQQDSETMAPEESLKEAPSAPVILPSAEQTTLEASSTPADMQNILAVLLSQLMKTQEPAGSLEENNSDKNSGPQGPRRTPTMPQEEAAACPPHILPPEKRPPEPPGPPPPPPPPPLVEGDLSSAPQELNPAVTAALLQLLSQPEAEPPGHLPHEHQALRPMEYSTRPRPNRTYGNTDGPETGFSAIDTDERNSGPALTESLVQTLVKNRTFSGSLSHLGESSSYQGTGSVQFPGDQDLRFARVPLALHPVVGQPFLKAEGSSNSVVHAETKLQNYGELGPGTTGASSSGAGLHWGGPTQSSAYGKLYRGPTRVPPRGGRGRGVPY
CDK12 wt/CycK, sequence (O75909 whole entry partner): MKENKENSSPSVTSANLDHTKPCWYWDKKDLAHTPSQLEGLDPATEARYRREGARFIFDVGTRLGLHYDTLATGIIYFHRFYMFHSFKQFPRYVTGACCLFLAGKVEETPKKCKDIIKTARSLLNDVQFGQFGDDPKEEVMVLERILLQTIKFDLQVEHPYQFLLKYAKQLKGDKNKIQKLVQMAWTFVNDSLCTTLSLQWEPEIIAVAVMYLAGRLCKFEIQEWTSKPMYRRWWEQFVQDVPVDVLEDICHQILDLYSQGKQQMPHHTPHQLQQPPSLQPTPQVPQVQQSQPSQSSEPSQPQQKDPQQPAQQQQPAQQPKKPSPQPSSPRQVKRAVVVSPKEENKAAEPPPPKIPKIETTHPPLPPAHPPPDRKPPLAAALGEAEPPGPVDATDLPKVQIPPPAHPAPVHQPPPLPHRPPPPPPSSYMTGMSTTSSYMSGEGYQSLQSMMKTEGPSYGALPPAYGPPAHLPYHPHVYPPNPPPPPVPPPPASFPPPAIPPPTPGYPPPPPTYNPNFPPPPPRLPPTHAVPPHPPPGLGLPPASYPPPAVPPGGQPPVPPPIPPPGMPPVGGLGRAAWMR
CDK12, sequence (Q9NYV4 whole entry): as the sequence (Q9NYV4 whole entry) above
CDK12, sequence (O75909 whole entry partner): as the sequence (O75909 whole entry partner) above

The first test has as its target CDK12 wt/CycK (Homo sapiens (Human), UniProt Q9NYV4). The test is described as follows: Radiometric protein kinase assay (33PanQinase Activity Assay), Assay Condition A (thiol containing conditions). The format is biochemical. Particulars: thiol containing conditions (1.2 mM DTT), ATP 0.3 μM; read-out: CDK12 IC50 Condition A. An outline of the steps:
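Recombinant human kinase incubated with [33P]ATP, substrate and compound (10 concentrations, 1×10^−04M to 3×10^−09M, singlicate, 1% DMSO) under thiol-containing buffer conditions, 60 min at 30 °C. 33Pi incorporation counted by scintillation; residual activity normalised to no-inhibitor and no-kinase controls, IC50 derived.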
Consider `C=CC(=O)Nc1ccc(C(=O)N2CC[C@@H](Nc3ncc(C(F)(F)F)c(NC)n3)C2)cc1` [Example 120, (R)—N-(4-(3-((4-(methylamino)-5-(trifluoromethyl)pyrimidin-2-yl)amino)pyrrolidine-1-carbonyl)phenyl)acrylamide], for which the IC50 is less than 100 nM.
`C=CC(=O)Nc1nc(C(=O)N2CC[C@@H](Nc3ncc(Cl)cn3)C2)cs1` [Example 94, (R)—N-(4-(3-((5-chloropyrimidin-2-yl)amino)pyrrolidine-1-carbonyl)thiazol-2-yl)acrylamide]: the IC50 lay in the range of 100 to 1000 nM.
With `C=CC(=O)Nc1ccc(C(=O)N2CC[C@@H](Nc3ncc(Cl)c(OCCOCC)n3)C2)cc1` [Example 153, (R)—N-(4-(3-((5-chloro-4-(2-ethoxyethoxy)pyrimidin-2-yl)amino)pyrrolidine-1-carbonyl)phenyl)acrylamide], the half-inhibitory concentration (IC50) was in the range of 100 to 1000 nM.
On the same count and under the same terms, as for `COc1nc(N[C@@H]2CCN(C(=O)c3ccc(NC(=O)/C=C/CN4CCCC(F)(F)C4)cc3)C2)ncc1Cl` [Example 173, (R,E)-N-(4-(3-((5-chloro-4-methoxypyrimidin-2-yl)amino)pyrrolidine-1-carbonyl)phenyl)-4-(3,3-difluoropiperidin-1-yl)but-2-enamide], the figure is 100 to 1000 nM; as for `COc1nc(N[C@@H]2CCN(C(=O)c3ccc(NC(=O)/C=C/CN4CCC[C@H](F)C4)cn3)C2)ncc1Cl` [Example 175, (E)-N-(6-((R)-3-((5-chloro-4-methoxypyrimidin-2-yl)amino)pyrrolidine-1-carbonyl)pyridin-3-yl)-4-((S)-3-fluoropiperidin-1-yl)but-2-enamide], 100 to 1000 nM; as for `C=CC(=O)N1CCc2cc(C(=O)N3CC[C@@H](Nc4ncc(Cl)cn4)C3)ccc2C1` [Example 132, (R)-1-(6-(3-((5-chloropyrimidin-2-yl)amino)pyrrolidine-1-carbonyl)-3,4-dihydroisoquinolin-2(1H)-yl)prop-2-en-1-one], 1000 to 10000 nM.
As to `C=CC(=O)Nc1ccc(C(=O)N2CC[C@@H](Nc3ncc(Br)cn3)C2)cc1N(C)CCN(C)C` [Example 159, (R)—N-(4-(3-((5-bromopyrimidin-2-yl)amino)pyrrolidine-1-carbonyl)-2-((2-(dimethylamino)ethyl)(methyl)amino)phenyl)acrylamide], the IC50 is 1000 to 10000 nM.
In the case of `C=CC(=O)Nc1ccc(C(=O)N2CC[C@@H](Nc3ncc(Cl)c(OCCO)n3)C2)cc1` [Example 137, (R)—N-(4-(3-((5-chloro-4-(2-hydroxyethoxy)pyrimidin-2-yl)amino)pyrrolidine-1-carbonyl)phenyl)acrylamide], the IC50 is less than 100 nM.
With `C=CC(=O)Nc1cccc(C(=O)N2CC[C@@H](Nc3ncc(Cl)c(OC)n3)C2)c1` [Example 105, (R)—N-(3-(3-((5-chloro-4-methoxypyrimidin-2-yl)amino)pyrrolidine-1-carbonyl)phenyl)acrylamide], the IC50 lay within 100 to 1000 nM.
For the compound `C=CC(=O)Nc1ccc(C(=O)N2CC[C@@H](Nc3ncc(Cl)cn3)C2)cc1` [Example 87, (R)—N-(4-(3-((5-chloropyrimidin-2-yl)amino)pyrrolidine-1-carbonyl)phenyl)acrylamide], the IC50 was in the range of 100 to 1000 nM.
For the compound `C=CC(=O)Nc1ccc(C(=O)N2CC[C@@H](Nc3ncc(Cl)cn3)C2)cc1OC1CCOC1` (stereo partly drawn) [Example 103, N-(4-((R)-3-((5-chloropyrimidin-2-yl)amino)pyrrolidine-1-carbonyl)-2-((tetrahydrofuran-3-yl)oxy)phenyl)acrylamide], the IC50 lay in the range of 100 to 1000 nM.
On the same count and under the same terms, as for `[2H]C([2H])([2H])Oc1nc(N[C@@H]2CCN(C(=O)c3ccc(NC(=O)C=C)cc3)C2)ncc1Cl` [Example 93, (R)—N-(4-(3-((5-chloro-4-(trideuteromethoxy)pyrimidin-2-yl)amino)pyrrolidine-1-carbonyl)phenyl)acrylamide], the figure is less than 100 nM; as for `[2H]c1nc(N[C@@H]2CCN(C(=O)c3ccc(NC(=O)C=C)cc3)C2)nc(NC)c1Cl` [Example 111, (R)—N-(4-(3-((5-chloro-4-deutero-6-(methylamino)pyrimidin-2-yl)amino)pyrrolidine-1-carbonyl)phenyl)acrylamide], less than 100 nM; as for `C=CC(=O)Nc1ccc(C(=O)N2CC[C@@H](Nc3ncc(Cl)cn3)C2)cc1N1CCC(N(C)C)C1` (stereo partly drawn) [Example 127, N-(4-((R)-3-((5-chloropyrimidin-2-yl)amino)pyrrolidine-1-carbonyl)-2-(3-(dimethylamino)pyrrolidin-1-yl)phenyl)acrylamide], 100 to 1000 nM.
For `C=CC(=O)Nc1ccc(C(=O)N2CC[C@@H](Nc3ncc(Cl)c(OCCOC)n3)C2)cc1` [Example 88, (R)—N-(4-(3-((5-chloro-4-(2-methoxyethoxy)pyrimidin-2-yl)amino)pyrrolidine-1-carbonyl)phenyl)acrylamide], the IC50 is less than 100 nM.
Take `C=CC(=O)Nc1ccc(C(=O)N2CC[C@@H](Nc3ncc(Cl)c(Oc4ccccc4)n3)C2)cc1` [Example 95, (R)—N-(4-(3-((5-chloro-4-phenoxypyrimidin-2-yl)amino)pyrrolidine-1-carbonyl)phenyl)acrylamide]: the IC50 was less than 100 nM.
Still for that read-out and setting: as for `C=CC(=O)Nc1ccc(C(=O)N2CC[C@@H](Nc3ncc(C#N)c(OC)n3)C2)cc1OCCN(C)C` [Example 165, (R)—N-(4-(3-((5-cyano-4-methoxypyrimidin-2-yl)amino)pyrrolidine-1-carbonyl)-2-(2-(dimethylamino)ethoxy)phenyl)acrylamide], the figure is less than 100 nM.

For the next test, the target named is CDK12 (Homo sapiens (Human), UniProt Q9NYV4). The test is described as follows: Radiometric protein kinase assay (33PanQinase Activity Assay), Assay Condition B (thiol-free conditions). Particulars: thiol-free conditions (1 mM TCEP, glutathione removed). The format is biochemical. As to the method:
Example 2—Assay Condition B (Thiol-Free Conditions)
The IC50 profile of compounds was determined using one protein kinase in a customized, thiol free assay. […] Prior to testing, the 1×10^−03 M stock solutions in column 2 of the master plates were subjected to a serial, semi-logarithmic dilution using 100% DMSO as a solvent. […] Column 1 and 7 were filled with 100% DMSO as controls. Subsequently, 2×10 microliter from each well of the serial diluted copy plates were aliquoted with a 96 channel pipettor into two identical sets of “compound dilution plates”. All plates were barcoded for automated identification and tracking purposes. […] All compounds were stored as powder until being solubilized in DMSO. Solubilized compounds were stored as 1×10^−02 M/100% DMSO stock solutions. Prior to the assay process, 90 microliters of H2O were added to each well of a set of compound dilution plates. To minimize potential precipitation, the H2O was added to each plate only a few minutes before the transfer of the compound solutions into the assay plates. Each plate was shaken thoroughly, resulting in compound dilution plates with a final of 10% DMSO. For each assay, 5 microliters of solution from each well of the compound dilution plates/10% DMSO were transferred into the assay plate. The final volume of the assay was 50 μl. All compounds were tested at 10 final assay concentrations in the range from 1×10^−05 M to 3×10^−10 M, in singlicate. The final DMSO concentration in the reaction cocktails was 1% in all cases. A radiometric protein kinase assay (33PanQinase® Activity Assay) was used for measuring the kinase activity of the protein kinase. All kinase assays were performed in 96-well FlashPlates™ from PerkinElmer (Boston, Mass., USA) in a 50 microliter reaction volume. The reaction cocktail was pipetted in four steps in the following order: 20 microliter of assay buffer (standard buffer)·5 microliter of ATP solution (in H2O)·5 microliter of test compound (in 10% DMSO)·20 microliter enzyme/substrate mix. […] For all experiments labeled as “Thiol-free”, all glutathione was exchanged from protein preparations so as to be removed from the assay and final buffer conditions contained no thiol-containing reagents. This was done so there would be no interference with the key cysteines in the proteins of interest.
For data analysis, the median value of the counts in column 1 (n=8) of each assay plate was defined as “low control”. This value reflects unspecific binding of radioactivity to the plate in the absence of a protein kinase but in the presence of the substrate. The median value of the counts in column 7 of each assay plate (n=8) was taken as the “high control”, i.e. full activity in the absence of any inhibitor. The difference between high and low control was taken as 100% activity. As part of the data evaluation the low control value from a particular plate was subtracted from the high control value as well as from all 80 “compound values” of the corresponding plate. The residual activity (in %) for each well of a particular plate was calculated by using the following formula: Res. Activity (%)=100×[(cpm of compound−low control)/(high control−low control)]
The residual activities for each concentration and the compound IC50 values were calculated using Quattro Workflow V3.1.1 (Quattro Research GmbH, Munich, Germany; www.quattro-research.com). […] The fitting method used was a least-squares fit. As a parameter for assay quality, the Z′-factor (Zhang et al., J. Biomol. Screen. 2: 67-73, 1999) for the low and high controls of each assay plate (n=8) was used. ProQinase's criterion for repetition of an assay plate is a Z′-factor below 0.4 (Iversen et al., J. Biomol. Screen. 3: 247-252, 2006).
In the case of `C=CC(=O)Nc1ccc(C(=O)N2CC[C@@H](Nc3ccc(C)cn3)C2)cc1` [Example 75, (R)—N-(4-(3-((5-methylpyridin-2-yl)amino)pyrrolidine-1-carbonyl)phenyl)acrylamide], the IC50 fell in the range of 1000 to 10000 nM.
`C=CC(=O)Nc1ccc(C(=O)N2CC[C@@H](Nc3ncc(C(F)(F)F)cn3)C2)cc1C` [Example 79, (R)—N-(2-methyl-4-(3-((5-(trifluoromethyl)pyrimidin-2-yl)amino)pyrrolidine-1-carbonyl)phenyl)acrylamide] gave an IC50 of less than 100 nM.
Consider `C=CC(=O)Nc1nc(C(=O)N2CC[C@@H](Nc3ncc(Cl)c(OC)n3)C2)cs1` [Example 7, (R)-N-(4-(3-((5-chloro-4-methoxypyrimidin-2-yl)amino)pyrrolidine-1-carbonyl)thiazol-2-yl)acrylamide], for which the IC50 was less than 100 nM.
Same read-out and setting: the same measure for `C=CC(=O)Nc1ccc(C(=O)N2CCC[C@@H](Nc3nccc(-c4cnn(C)c4)n3)C2)cc1` [Example 39, (R)—N-(4-(3-((4-(1-methyl-1H-pyrazol-4-yl)pyrimidin-2-yl)amino)piperidine-1-carbonyl)phenyl)acrylamide]: 30000 to 100000 nM; for `C=CC(=O)Nc1ncc(C(=O)N2CC[C@@H](Nc3ncc(Cl)c(OC)n3)C2)s1` [Example 8, (R)—N-(5-(3-((5-chloro-4-methoxypyrimidin-2-yl)amino)pyrrolidine-1-carbonyl)thiazol-2-yl)acrylamide]: 100 to 1000 nM; for `C=CC(=O)Nc1ccc(C(=O)N2CCC[C@@H](Nc3cnc(Cl)cn3)C2)cc1` [Example 38, (R)—N-(4-(3-((5-chloropyrazin-2-yl)amino)piperidine-1-carbonyl)phenyl)acrylamide]: 10000 to 30000 nM.
Consider `C=CC(=O)N1CCOc2cc(C(=O)N3CC[C@@H](Nc4ncc(Cl)c(OC)n4)C3)ccc21` [Example 63, (R)-1-(7-(3-((5-chloro-4-methoxypyrimidin-2-yl)amino)pyrrolidine-1-carbonyl)-2H-benzo[b][1,4]oxazin-4(3H)-yl)prop-2-en-1-one], for which the concentration for half-maximal inhibition (IC50) fell in the range of 100 to 1000 nM.
